Measurements from ChEMBL document CHEMBL1135692, “Structure-activity relationships of the melanocortin tetrapeptide Ac-His-D-Phe-Arg-Trp-NH2 at the mouse melanocortin receptors. 4. Modifications at the Trp position” (J Med Chem, 2002).

These molecules were tested against Melanocortin receptor 5 (Mus musculus, UniProt P41149) (assay: Activity in mouse melanocortin-5 receptor stably expressed in HEK293 cells).
Chain of Melanocortin receptor 5 (P41149 whole entry): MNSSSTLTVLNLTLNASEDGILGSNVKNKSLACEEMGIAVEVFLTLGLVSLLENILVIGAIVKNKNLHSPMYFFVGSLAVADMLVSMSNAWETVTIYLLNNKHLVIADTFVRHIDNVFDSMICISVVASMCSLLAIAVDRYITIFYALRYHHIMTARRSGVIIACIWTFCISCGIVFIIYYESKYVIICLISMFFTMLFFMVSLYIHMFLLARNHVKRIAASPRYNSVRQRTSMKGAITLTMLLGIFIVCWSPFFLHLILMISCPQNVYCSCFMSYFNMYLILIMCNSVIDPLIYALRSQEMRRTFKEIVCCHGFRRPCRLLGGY
Format: cell-based
For `CC(=O)N[C@@H](Cc1c[nH]cn1)C(=O)N[C@H](Cc1ccccc1)C(=O)N[C@@H](CCCN=C(N)N)C(=O)N[C@@H](C)C(N)=O`, the EC50 was 38400 nM.
`CC(=O)N[C@@H](Cc1cnc[nH]1)C(=O)NC(Cc1ccccc1)C(=O)N[C@@H](CCCNC(=N)N)C(=O)N[C@@H](Cc1cccc2ccccc12)C(N)=O` (stereo in doubt) showed an EC50 of 750 nM.
Molecule `CC(=O)N[C@@H](Cc1cnc[nH]1)C(=O)NC(Cc1ccccc1)C(=O)N[C@@H](CCCNC(=N)N)C(=O)N[C@H](Cc1csc2ccccc12)C(N)=O` (stereo in doubt) has an EC50 of 47.7 nM.
For `CC(=O)N[C@@H](Cc1cnc[nH]1)C(=O)NC(Cc1ccccc1)C(=O)N[C@@H](CCCNC(=N)N)C(=O)N[C@H](Cc1cccs1)C(N)=O` (stereo in doubt), the EC50 was 850 nM.
`CC(=O)N[C@@H](Cc1cnc[nH]1)C(=O)NC(Cc1ccccc1)C(=O)N[C@@H](CCCNC(=N)N)C(=O)N[C@H](Cc1cnc[nH]1)C(N)=O` (stereo in doubt) was tested, and the EC50 was 36000 nM.
`CC(=O)N[C@@H](Cc1c[nH]cn1)C(=O)NC(Cc1ccccc1)C(=O)N[C@@H](CCCN=C(N)N)C(=O)N[C@H](Cc1ccc(-c2ccccc2)cc1)C(N)=O` (stereo in doubt) was tested, and the EC50 was 100 nM.
Work on `CC(=O)N[C@@H](Cc1cnc[nH]1)C(=O)NC(Cc1ccccc1)C(=O)N[C@@H](CCCNC(=N)N)C(=O)N[C@H](Cc1cccc2ccccc12)C(N)=O` (stereo in doubt) yielded an EC50 of 33.1 nM.
Molecule `CC(=O)N[C@@H](Cc1c[nH]cn1)C(=O)N[C@H](Cc1ccccc1)C(=O)N[C@@H](CCCN=C(N)N)C(=O)N[C@H](C(N)=O)C(c1ccccc1)c1ccccc1` has an EC50 of 7100 nM.
Work on `CC(=O)N[C@@H](Cc1cnc[nH]1)C(=O)N[C@H](Cc1ccccc1)C(=O)N[C@@H](CCCN=C(N)N)C(=O)N1Cc2ccccc2C[C@@H]1C(N)=O` yielded an EC50 of 24800 nM.
`CC(=O)N[C@@H](Cc1cnc[nH]1)C(=O)NC(Cc1ccccc1)C(=O)N[C@@H](CCCNC(=N)N)C(=O)NC(C(N)=O)C(c1ccccc1)c1ccccc1` (stereo in doubt) gave an EC50 of 7440 nM.
Molecule `CC(=O)N[C@@H](Cc1c[nH]cn1)C(=O)N[C@H](Cc1ccccc1)C(=O)N[C@@H](CCCN=C(N)N)C(=O)N[C@@]1(C(N)=O)CCc2ccccc2C1` (stereo in doubt; 20) has an EC50 of 180 nM.
For `CC(=O)N[C@@H](Cc1cnc[nH]1)C(=O)N[C@H](Cc1ccccc1)C(=O)N[C@@H](CCCN=C(N)N)C(=O)N1Cc2ccccc2C[C@H]1C(N)=O`, the EC50 was 700 nM.
With `CC(=O)N[C@@H](Cc1cnc[nH]1)C(=O)N[C@H](Cc1ccccc1)C(=O)N[C@@H](CCCN=C(N)N)C(=O)NC(Cc1c[nH]c2ccccc12)C(N)=O` (stereo in doubt) the EC50 was 35.3 nM.
Work on `CC(=O)N[C@@H](Cc1c[nH]cn1)C(=O)NC(Cc1ccccc1)C(=O)N[C@@H](CCCN=C(N)N)C(=O)NC(Cc1ccccc1)C(N)=O` (stereo in doubt) yielded an EC50 of 470 nM.
`CC(=O)N[C@@H](Cc1c[nH]cn1)C(=O)NC(Cc1ccccc1)C(=O)N[C@@H](CCCN=C(N)N)C(=O)N[C@H](Cc1ccc2ccccc2c1)C(N)=O` (stereo in doubt) gave an EC50 of 4.86 nM.
Molecule `CC(=O)N[C@@H](Cc1cnc[nH]1)C(=O)NC(Cc1ccccc1)C(=O)N[C@@H](CCCNC(=N)N)C(=O)N[C@@H](Cc1ccc(-c2ccccc2)cc1)C(N)=O` (stereo in doubt) has an EC50 of 150 nM.
With `CC(=O)N[C@@H](Cc1cnc[nH]1)C(=O)NC(Cc1ccccc1)C(=O)N[C@@H](CCCNC(=N)N)C(=O)N[C@H](Cc1ccncc1)C(N)=O` (stereo in doubt) the EC50 was 14500 nM.

Each molecule was assayed against Melanocortin receptor 4 (Mus musculus, UniProt P56450) (assay: Activity in mouse melanocortin-4 receptor stably expressed in HEK293 cells).
Chain of Melanocortin receptor 4 (P56450 whole entry): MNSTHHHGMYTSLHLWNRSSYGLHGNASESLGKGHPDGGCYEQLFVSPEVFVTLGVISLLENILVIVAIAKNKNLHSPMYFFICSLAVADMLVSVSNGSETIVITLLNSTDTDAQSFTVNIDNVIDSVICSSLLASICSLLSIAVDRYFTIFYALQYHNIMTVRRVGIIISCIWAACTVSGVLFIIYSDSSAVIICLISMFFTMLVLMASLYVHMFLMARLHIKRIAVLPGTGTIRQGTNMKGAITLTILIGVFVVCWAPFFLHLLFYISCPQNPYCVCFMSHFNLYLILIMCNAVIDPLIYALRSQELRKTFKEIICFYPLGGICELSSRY
Format: cell-based
In the case of `CC(=O)N[C@@H](Cc1c[nH]cn1)C(=O)N[C@H](Cc1ccccc1)C(=O)N[C@@H](CCCN=C(N)N)C(=O)N[C@@H](C)C(N)=O`, the EC50 is reported as 43.7 µM.
For `CC(=O)N[C@@H](Cc1cnc[nH]1)C(=O)NC(Cc1ccccc1)C(=O)N[C@@H](CCCNC(=N)N)C(=O)N[C@@H](Cc1cccc2ccccc12)C(N)=O` (stereo in doubt), the EC50 was 5.4 µM.
`CC(=O)N[C@@H](Cc1cnc[nH]1)C(=O)NC(Cc1ccccc1)C(=O)N[C@@H](CCCNC(=N)N)C(=O)N[C@H](Cc1csc2ccccc12)C(N)=O` (stereo in doubt) was tested, and the EC50 was 0.143 µM.
`CC(=O)N[C@@H](Cc1cnc[nH]1)C(=O)NC(Cc1ccccc1)C(=O)N[C@@H](CCCNC(=N)N)C(=O)N[C@H](Cc1cccs1)C(N)=O` (stereo in doubt) was tested, and the EC50 was 8.12 µM.
In the case of `CC(=O)N[C@@H](Cc1cnc[nH]1)C(=O)NC(Cc1ccccc1)C(=O)N[C@@H](CCCNC(=N)N)C(=O)N[C@H](Cc1cnc[nH]1)C(N)=O` (stereo in doubt), the EC50 is reported as 27.6 µM.
With `CC(=O)N[C@@H](Cc1c[nH]cn1)C(=O)NC(Cc1ccccc1)C(=O)N[C@@H](CCCN=C(N)N)C(=O)N[C@H](Cc1ccc(-c2ccccc2)cc1)C(N)=O` (stereo in doubt) the EC50 was 2.7 µM.
`CC(=O)N[C@@H](Cc1cnc[nH]1)C(=O)NC(Cc1ccccc1)C(=O)N[C@@H](CCCNC(=N)N)C(=O)N[C@H](Cc1cccc2ccccc12)C(N)=O` (stereo in doubt) gave an EC50 of 0.26 µM.
Work on `CC(=O)N[C@@H](Cc1c[nH]cn1)C(=O)N[C@H](Cc1ccccc1)C(=O)N[C@@H](CCCN=C(N)N)C(=O)N[C@H](C(N)=O)C(c1ccccc1)c1ccccc1` yielded an EC50 of 11.6 µM.
In the case of `CC(=O)N[C@@H](Cc1cnc[nH]1)C(=O)N[C@H](Cc1ccccc1)C(=O)N[C@@H](CCCN=C(N)N)C(=O)N1Cc2ccccc2C[C@@H]1C(N)=O`, the EC50 is reported as 39.4 µM.
In the case of `CC(=O)N[C@@H](Cc1cnc[nH]1)C(=O)NC(Cc1ccccc1)C(=O)N[C@@H](CCCNC(=N)N)C(=O)NC(C(N)=O)C(c1ccccc1)c1ccccc1` (stereo in doubt), the EC50 is reported as 7.8 µM.
`CC(=O)N[C@@H](Cc1c[nH]cn1)C(=O)N[C@H](Cc1ccccc1)C(=O)N[C@@H](CCCN=C(N)N)C(=O)N[C@@]1(C(N)=O)CCc2ccccc2C1` (stereo in doubt; 20) gave an EC50 of 3.46 µM.
Work on `CC(=O)N[C@@H](Cc1cnc[nH]1)C(=O)N[C@H](Cc1ccccc1)C(=O)N[C@@H](CCCN=C(N)N)C(=O)N1Cc2ccccc2C[C@H]1C(N)=O` yielded an EC50 of 8.5 µM.
In the case of `CC(=O)N[C@@H](Cc1cnc[nH]1)C(=O)N[C@H](Cc1ccccc1)C(=O)N[C@@H](CCCN=C(N)N)C(=O)NC(Cc1c[nH]c2ccccc12)C(N)=O` (stereo in doubt), the EC50 is reported as 0.24 µM.
Molecule `CC(=O)N[C@@H](Cc1c[nH]cn1)C(=O)NC(Cc1ccccc1)C(=O)N[C@@H](CCCN=C(N)N)C(=O)NC(Cc1ccccc1)C(N)=O` (stereo in doubt) has an EC50 of 1 µM.
In the case of `CC(=O)N[C@@H](Cc1c[nH]cn1)C(=O)NC(Cc1ccccc1)C(=O)N[C@@H](CCCN=C(N)N)C(=O)N[C@H](Cc1ccc2ccccc2c1)C(N)=O` (stereo in doubt), the EC50 is reported as 0.0158 µM.
For `CC(=O)N[C@@H](Cc1cnc[nH]1)C(=O)NC(Cc1ccccc1)C(=O)N[C@@H](CCCNC(=N)N)C(=O)N[C@@H](Cc1ccc(-c2ccccc2)cc1)C(N)=O` (stereo in doubt), the EC50 was 1.5 µM.
With `CC(=O)N[C@@H](Cc1cnc[nH]1)C(=O)NC(Cc1ccccc1)C(=O)N[C@@H](CCCNC(=N)N)C(=O)N[C@H](Cc1ccncc1)C(N)=O` (stereo in doubt) the EC50 was 30 µM.

These molecules were tested against Melanocyte-stimulating hormone receptor (Mus musculus, UniProt Q01727) (assay: Activity in mouse melanocortin-1 receptor stably expressed in HEK293 cells).
Chain of Melanocyte-stimulating hormone receptor (Q01727 whole entry): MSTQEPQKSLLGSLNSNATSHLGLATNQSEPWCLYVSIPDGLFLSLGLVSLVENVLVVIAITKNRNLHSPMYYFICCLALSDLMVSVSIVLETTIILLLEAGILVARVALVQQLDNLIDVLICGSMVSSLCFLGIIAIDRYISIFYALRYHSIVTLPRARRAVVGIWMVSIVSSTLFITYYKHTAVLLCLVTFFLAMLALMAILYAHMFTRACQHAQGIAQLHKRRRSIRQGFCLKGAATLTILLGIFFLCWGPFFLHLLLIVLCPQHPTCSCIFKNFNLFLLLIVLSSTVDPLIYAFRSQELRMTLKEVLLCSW
Format: cell-based
`CC(=O)N[C@@H](Cc1c[nH]cn1)C(=O)N[C@H](Cc1ccccc1)C(=O)N[C@@H](CCCN=C(N)N)C(=O)N[C@@H](C)C(N)=O` was tested, and the EC50 was 4400 nM.
With `CC(=O)N[C@@H](Cc1cnc[nH]1)C(=O)NC(Cc1ccccc1)C(=O)N[C@@H](CCCNC(=N)N)C(=O)N[C@@H](Cc1cccc2ccccc12)C(N)=O` (stereo in doubt) the EC50 was 750 nM.
`CC(=O)N[C@@H](Cc1cnc[nH]1)C(=O)NC(Cc1ccccc1)C(=O)N[C@@H](CCCNC(=N)N)C(=O)N[C@H](Cc1csc2ccccc12)C(N)=O` (stereo in doubt) gave an EC50 of 79.9 nM.
`CC(=O)N[C@@H](Cc1cnc[nH]1)C(=O)NC(Cc1ccccc1)C(=O)N[C@@H](CCCNC(=N)N)C(=O)N[C@H](Cc1cccs1)C(N)=O` (stereo in doubt) showed an EC50 of 2780 nM.
Molecule `CC(=O)N[C@@H](Cc1cnc[nH]1)C(=O)NC(Cc1ccccc1)C(=O)N[C@@H](CCCNC(=N)N)C(=O)N[C@H](Cc1cnc[nH]1)C(N)=O` (stereo in doubt) has an EC50 of 3800 nM.
`CC(=O)N[C@@H](Cc1c[nH]cn1)C(=O)NC(Cc1ccccc1)C(=O)N[C@@H](CCCN=C(N)N)C(=O)N[C@H](Cc1ccc(-c2ccccc2)cc1)C(N)=O` (stereo in doubt) gave an EC50 of 51.9 nM.
Work on `CC(=O)N[C@@H](Cc1cnc[nH]1)C(=O)NC(Cc1ccccc1)C(=O)N[C@@H](CCCNC(=N)N)C(=O)N[C@H](Cc1cccc2ccccc12)C(N)=O` (stereo in doubt) yielded an EC50 of 730 nM.
`CC(=O)N[C@@H](Cc1c[nH]cn1)C(=O)N[C@H](Cc1ccccc1)C(=O)N[C@@H](CCCN=C(N)N)C(=O)N[C@H](C(N)=O)C(c1ccccc1)c1ccccc1` gave an EC50 of 2300 nM.
`CC(=O)N[C@@H](Cc1cnc[nH]1)C(=O)N[C@H](Cc1ccccc1)C(=O)N[C@@H](CCCN=C(N)N)C(=O)N1Cc2ccccc2C[C@@H]1C(N)=O` was tested, and the EC50 was 1500 nM.
Work on `CC(=O)N[C@@H](Cc1cnc[nH]1)C(=O)NC(Cc1ccccc1)C(=O)N[C@@H](CCCNC(=N)N)C(=O)NC(C(N)=O)C(c1ccccc1)c1ccccc1` (stereo in doubt) yielded an EC50 of 680 nM.
`CC(=O)N[C@@H](Cc1c[nH]cn1)C(=O)N[C@H](Cc1ccccc1)C(=O)N[C@@H](CCCN=C(N)N)C(=O)N[C@@]1(C(N)=O)CCc2ccccc2C1` (stereo in doubt; 20) was tested, and the EC50 was 700 nM.
With `CC(=O)N[C@@H](Cc1cnc[nH]1)C(=O)N[C@H](Cc1ccccc1)C(=O)N[C@@H](CCCN=C(N)N)C(=O)N1Cc2ccccc2C[C@H]1C(N)=O` the EC50 was 43 nM.
Work on `CC(=O)N[C@@H](Cc1c[nH]cn1)C(=O)NC(Cc1ccccc1)C(=O)N[C@@H](CCCN=C(N)N)C(=O)NC(Cc1ccccc1)C(N)=O` (stereo in doubt) yielded an EC50 of 2500 nM.
In the case of `CC(=O)N[C@@H](Cc1c[nH]cn1)C(=O)NC(Cc1ccccc1)C(=O)N[C@@H](CCCN=C(N)N)C(=O)N[C@H](Cc1ccc2ccccc2c1)C(N)=O` (stereo in doubt), the EC50 is reported as 17.9 nM.
Molecule `CC(=O)N[C@@H](Cc1cnc[nH]1)C(=O)NC(Cc1ccccc1)C(=O)N[C@@H](CCCNC(=N)N)C(=O)N[C@@H](Cc1ccc(-c2ccccc2)cc1)C(N)=O` (stereo in doubt) has an EC50 of 310 nM.
Molecule `CC(=O)N[C@@H](Cc1cnc[nH]1)C(=O)NC(Cc1ccccc1)C(=O)N[C@@H](CCCNC(=N)N)C(=O)N[C@H](Cc1ccncc1)C(N)=O` (stereo in doubt) has an EC50 of 2240 nM.

Each molecule was assayed against Melanocortin receptor 3 (Mus musculus, UniProt P33033) (assay: Activity in mouse melanocortin-3 receptor (mMC3R) stably expressed in HEK293 cells).
Chain of Melanocortin receptor 3 (P33033 whole entry): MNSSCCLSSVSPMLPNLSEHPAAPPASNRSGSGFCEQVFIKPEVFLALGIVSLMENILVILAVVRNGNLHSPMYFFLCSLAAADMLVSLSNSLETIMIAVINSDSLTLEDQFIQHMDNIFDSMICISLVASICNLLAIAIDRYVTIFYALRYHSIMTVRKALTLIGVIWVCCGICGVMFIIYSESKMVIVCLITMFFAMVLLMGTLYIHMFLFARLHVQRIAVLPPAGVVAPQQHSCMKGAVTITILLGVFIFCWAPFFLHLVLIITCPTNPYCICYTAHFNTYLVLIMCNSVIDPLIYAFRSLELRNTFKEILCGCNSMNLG
Format: cell-based
With `CC(=O)N[C@@H](Cc1c[nH]cn1)C(=O)N[C@H](Cc1ccccc1)C(=O)N[C@@H](CCCN=C(N)N)C(=O)N[C@@H](C)C(N)=O` the EC50 was greater than 100 µM.
Work on `CC(=O)N[C@@H](Cc1cnc[nH]1)C(=O)N[C@H](Cc1ccccc1)C(=O)N[C@@H](CCCN=C(N)N)C(=O)N1Cc2ccccc2C[C@@H]1C(N)=O` yielded an EC50 greater than 100 µM.
With `CC(=O)N[C@@H](Cc1c[nH]cn1)C(=O)N[C@H](Cc1ccccc1)C(=O)N[C@@H](CCCN=C(N)N)C(=O)N[C@@]1(C(N)=O)CCc2ccccc2C1` (stereo in doubt; 20) the EC50 was 9.9 µM.
`CC(=O)N[C@@H](Cc1cnc[nH]1)C(=O)N[C@H](Cc1ccccc1)C(=O)N[C@@H](CCCN=C(N)N)C(=O)N1Cc2ccccc2C[C@H]1C(N)=O` gave an EC50 of 23.2 µM.
